In PMC13210772, “Dual FLT3/MAPK14 Proteolysis-Targeting Chimera (PROTAC) Induces Potent Acute Myeloid Leukemia Cell Death” (Pharmaceuticals, 2026):

What was measured:
Test in all cases: NanoBRET CELLinib128
Format in all cases: binding
MAP4K5 = molecular target: T1, MAP4K5 (Homo sapiens, UniProt Q9Y4K4); conditions: 100% no effect, 0% complete tracer displacement, read-out: Tracer bound
T1 construct: Full-length kinase ORF (Promega, Madison, WI, USA) cloned in frame with a NanoLuc-vector was transfected into HEK293T cells; host or cells: HEK293T
Method: (§1) To get an impression about the binding strength of the PROTAC MA191 and the reference inhibitor MA68 to other kinases besides FLT3-ITD the binding on a kinase panel of further 128 representative protein kinases at 1 μM concentration was tested using the NanoBRET^TM cellular target engagement assay (CELLinib128 assay, CELLinib GmbH, Frankfurt, Germany). […] In none of the 128 kinases MA191 was able to displace the tracer (inhibitor) used by more than 50%, Table S1, Supplementary Information).
(§2) The CELLinib128 assay was performed by CELLinib GmbH, Frankfurt (Germany) as described previously. In brief: Full-length kinase ORF (Promega, Madison, WI, USA) cloned in frame with a NanoLuc-vector was transfected into HEK293T cells in Opti-MEM without phenol red (Life Technologies, Carlsbad, CA, USA) at a density of 2 × 10^5 cells/mL using FuGENE HD (Promega, E2312) and proteins were allowed to express for 20 h. For CDKs, where indicated below, an excess of an activator without an NLuc-fusion was cotransfected. […] The system was allowed to equilibrate at 37 °C for 2 h and 5% CO2 prior to BRET measurements. For PKCs, a chemical activator PMA was added in a final concentration of 1 µM was added together with test compounds and tracers (Promega, V1171). To measure BRET, NanoBRET^TM NanoGlo substrate + extracellular NanoLuc inhibitor (Promega, N2160) were added as per the manufacturer’s protocol, and filtered luminescence was measured (450 nm BP filter (donor) and 610 nm LP filter (acceptor)). For the 1-shot test compounds, data were normalized to the tracer control and the background control or control compound plateau and an average and SD were calculated. […] For the control compounds competitive displacement data were normalized to the tracer Ctrl and the background Ctrl and then plotted and fitted using GraphPad Prism 10 software using a normalized 3-parameter curve fit with the following equation: Y = 100/(1 + 10^X−LogIC50).

NEK9 = molecular target: T2, NEK9 (Homo sapiens, UniProt Q8TD19); conditions: 100% no effect, 0% complete tracer displacement, read-out: Tracer bound
T2 construct: Full-length kinase ORF (Promega, Madison, WI, USA) cloned in frame with a NanoLuc-vector was transfected into HEK293T cells; host or cells: HEK293T
Method: as §1, §2

PRKACB = molecular target: T3, PRKACB (Homo sapiens, UniProt P22694); conditions: 100% no effect, 0% complete tracer displacement, read-out: Tracer bound
T3 construct: Full-length kinase ORF (Promega, Madison, WI, USA) cloned in frame with a NanoLuc-vector was transfected into HEK293T cells; host or cells: HEK293T
Method: as §1, §2

TRKA = molecular target: T4, TRKA (Homo sapiens, UniProt P04629); conditions: 100% no effect, 0% complete tracer displacement, read-out: Tracer bound
T4 construct: Full-length kinase ORF (Promega, Madison, WI, USA) cloned in frame with a NanoLuc-vector; host or cells: HEK293T
Method: as §1, §2

STK36 = molecular target: T5, STK36 (Homo sapiens, UniProt Q9NRP7); conditions: 100% no effect, 0% complete tracer displacement, read-out: Tracer bound
T5 construct: Full-length kinase ORF (Promega, Madison, WI, USA) cloned in frame with a NanoLuc-vector was transfected into HEK293T cells; host or cells: HEK293T
Method: as §1, §2

JAK3 = molecular target: T6, JAK3 (Homo sapiens, UniProt P52333); conditions: 100% no effect, 0% complete tracer displacement, read-out: Tracer bound
T6 construct: Full-length kinase ORF (Promega, Madison, WI, USA) cloned in frame with a NanoLuc-vector was transfected into HEK293T cells; host or cells: HEK293T
Method: as §1, §2

PTK2 = molecular target: T7, PTK2 (Homo sapiens, UniProt Q05397); conditions: 100% no effect, 0% complete tracer displacement, read-out: Tracer bound
T7 construct: Full-length kinase ORF (Promega, Madison, WI, USA) cloned in frame with a NanoLuc-vector was transfected into HEK293T cells; host or cells: HEK293T
Method: as §1, §2

RET = molecular target: T8, RET (Homo sapiens, UniProt P07949); conditions: 100% no effect, 0% complete tracer displacement, read-out: Tracer bound
T8 construct: Full-length kinase ORF (Promega, Madison, WI, USA) cloned in frame with a NanoLuc-vector was transfected into HEK293T cells; host or cells: HEK293T
Method: as §1, §2

NUAK1 = molecular target: T9, NUAK1 (Homo sapiens, UniProt O60285); conditions: 1 µM; 100% no effect, 0% complete tracer displacement
T9 construct: Full-length kinase ORF (Promega, Madison, WI, USA) cloned in frame with a NanoLuc-vector was transfected into HEK293T cells; host or cells: HEK293T
Method: as §1, §2

MYLK3 = molecular target: T10, MYLK3 (Homo sapiens, UniProt Q32MK0); conditions: 100% no effect, 0% complete tracer displacement, read-out: Tracer bound
T10 construct: Full-length kinase ORF (Promega, Madison, WI, USA) cloned in frame with a NanoLuc-vector was transfected into HEK293T cells; host or cells: HEK293T
Method: as §1, §2

SRMS = molecular target: T11, SRMS (Homo sapiens, UniProt Q9H3Y6); conditions: 100% no effect, 0% complete tracer displacement, read-out: Tracer bound
T11 construct: Full-length kinase ORF (Promega, Madison, WI, USA) cloned in frame with a NanoLuc-vector was transfected into HEK293T cells; host or cells: HEK293T
Method: as §1, §2

STK35 = molecular target: T12, STK35 (Homo sapiens, UniProt Q8TDR2); conditions: 100% no effect, 0% complete tracer displacement, read-out: Tracer bound
T12 construct: Full-length kinase ORF (Promega, Madison, WI, USA) cloned in frame with a NanoLuc-vector was transfected into HEK293T cells; host or cells: HEK293T
Method: as §1, §2

FGFR2 = molecular target: T13, FGFR2 (Homo sapiens, UniProt P21802); conditions: 100% no effect, 0% complete tracer displacement, read-out: Tracer bound
T13 construct: Full-length kinase ORF (Promega, Madison, WI, USA) cloned in frame with a NanoLuc-vector was transfected into HEK293T cells; host or cells: HEK293T
Method: as §1, §2

PLK4 = molecular target: T14, PLK4 (Homo sapiens, UniProt O00444); conditions: 100% no effect, 0% complete tracer displacement, read-out: Tracer bound
T14 construct: Full-length kinase ORF (Promega, Madison, WI, USA) cloned in frame with a NanoLuc-vector was transfected into HEK293T cells; host or cells: HEK293T
Method: as §1, §2

CDK4-CCND3 = molecular target: T15, CDK4-CCND3 (Homo sapiens, UniProt P11802); conditions: 100% no effect, 0% complete tracer displacement, read-out: Tracer bound
T15 construct: Full-length kinase ORF (Promega, Madison, WI, USA) cloned in frame with a NanoLuc-vector was transfected into HEK293T cells; host or cells: HEK293T
Method: as §1, §2

STK33 = molecular target: T16, STK33 (Homo sapiens, UniProt Q9BYT3); conditions: 100% no effect, 0% complete tracer displacement, read-out: Tracer bound
T16 construct: Full-length kinase ORF (Promega, Madison, WI, USA) cloned in frame with a NanoLuc-vector was transfected into HEK293T cells; host or cells: HEK293T
Method: as §1, §2

CSNK2A2 = molecular target: T17, CSNK2A2 (Homo sapiens, UniProt P19784); conditions: 100% no effect, 0% complete tracer displacement, read-out: Tracer bound
T17 construct: Full-length kinase ORF (Promega, Madison, WI, USA) cloned in frame with a NanoLuc-vector was transfected into HEK293T cells; host or cells: HEK293T
Method: as §1, §2

RPS6KA2 = molecular target: T18, RPS6KA2 (Homo sapiens, UniProt Q15349); conditions: 100% no effect, 0% complete tracer displacement, read-out: Tracer bound
T18 construct: Full-length kinase ORF (Promega, Madison, WI, USA) cloned in frame with a NanoLuc-vector was transfected into HEK293T cells; host or cells: HEK293T
Method: as §1, §2

MAP4K3 = molecular target: T19, MAP4K3 (Homo sapiens, UniProt Q8IVH8); conditions: 1 µM; 100% no effect, 0% complete tracer displacement
T19 construct: Full-length kinase ORF (Promega, Madison, WI, USA) cloned in frame with a NanoLuc-vector was transfected into HEK293T cells; host or cells: HEK293T
Method: as §1, §2

CDK20-CCNH = molecular target: T20, CDK20-CCNH (Homo sapiens, UniProt Q8IZL9); conditions: 100% no effect, 0% complete tracer displacement, read-out: Tracer bound
T20 construct: Full-length kinase ORF (Promega, Madison, WI, USA) cloned in frame with a NanoLuc-vector was transfected into HEK293T cells; host or cells: HEK293T
Method: as §1, §2

CAMK2A = molecular target: T21, CAMK2A (Homo sapiens, UniProt Q9UQM7); conditions: 100% no effect, 0% complete tracer displacement, read-out: Tracer bound
T21 construct: Full-length kinase ORF (Promega, Madison, WI, USA) cloned in frame with a NanoLuc-vector was transfected into HEK293T cells; host or cells: HEK293T
Method: as §1, §2

HUNK = molecular target: T22, HUNK (Homo sapiens, UniProt P57058); conditions: 100% no effect, 0% complete tracer displacement, read-out: Tracer bound
T22 construct: Full-length kinase ORF (Promega, Madison, WI, USA) cloned in frame with a NanoLuc-vector was transfected into HEK293T cells; host or cells: HEK293T
Method: as §1, §2

TBK1 = molecular target: T23, TBK1 (Homo sapiens, UniProt Q9UHD2); conditions: 100% no effect, 0% complete tracer displacement, read-out: Tracer bound
T23 construct: Full-length kinase ORF (Promega, Madison, WI, USA) cloned in frame with a NanoLuc-vector was transfected into HEK293T cells; host or cells: HEK293T
Method: as §1, §2

TNNI3K = molecular target: T24, TNNI3K (Homo sapiens, UniProt Q59H18); conditions: 100% no effect, 0% complete tracer displacement, read-out: Tracer bound
T24 construct: Full-length kinase ORF (Promega, Madison, WI, USA) cloned in frame with a NanoLuc-vector; host or cells: HEK293T
Method: as §1, §2

CDK2-CCNE1 = molecular target: T25, CDK2-CCNE1 (Homo sapiens, UniProt P24941); conditions: 1 µM; 100% no effect, 0% complete tracer displacement
T25 construct: Full-length kinase ORF (Promega, Madison, WI, USA) cloned in frame with a NanoLuc-vector was transfected into HEK293T cells; host or cells: HEK293T
Method: as §1, §2

MAPK9 = molecular target: T26, MAPK9 (Homo sapiens, UniProt P45984); conditions: 1 µM; 100% no effect, 0% complete tracer displacement
T26 construct: Full-length kinase ORF (Promega, Madison, WI, USA) cloned in frame with a NanoLuc-vector was transfected into HEK293T cells; host or cells: HEK293T
Method: as §1, §2

NEK3 = molecular target: T27, NEK3 (Homo sapiens, UniProt P51956); conditions: 100% no effect, 0% complete tracer displacement, read-out: Tracer bound
T27 construct: Full-length kinase ORF (Promega, Madison, WI, USA) cloned in frame with a NanoLuc-vector was transfected into HEK293T cells; host or cells: HEK293T
Method: as §1, §2

MAPK6 = molecular target: T28, MAPK6 (Homo sapiens, UniProt Q16659); conditions: 100% no effect, 0% complete tracer displacement, read-out: Tracer bound
T28 construct: Full-length kinase ORF (Promega, Madison, WI, USA) cloned in frame with a NanoLuc-vector was transfected into HEK293T cells; host or cells: HEK293T
Method: as §1, §2

SIK1 = molecular target: T29, SIK1 (Homo sapiens, UniProt P57059); conditions: 1 µM; 100% no effect, 0% complete tracer displacement
T29 construct: Full-length kinase ORF (Promega, Madison, WI, USA) cloned in frame with a NanoLuc-vector was transfected into HEK293T cells; host or cells: HEK293T
Method: as §1, §2

LIMK2 = molecular target: T30, LIMK2 (Homo sapiens, UniProt P53671); conditions: 100% no effect, 0% complete tracer displacement, read-out: Tracer bound
T30 construct: Full-length kinase ORF (Promega, Madison, WI, USA) cloned in frame with a NanoLuc-vector was transfected into HEK293T cells; host or cells: HEK293T
Method: as §1, §2

T7 sequence (Q05397 whole entry): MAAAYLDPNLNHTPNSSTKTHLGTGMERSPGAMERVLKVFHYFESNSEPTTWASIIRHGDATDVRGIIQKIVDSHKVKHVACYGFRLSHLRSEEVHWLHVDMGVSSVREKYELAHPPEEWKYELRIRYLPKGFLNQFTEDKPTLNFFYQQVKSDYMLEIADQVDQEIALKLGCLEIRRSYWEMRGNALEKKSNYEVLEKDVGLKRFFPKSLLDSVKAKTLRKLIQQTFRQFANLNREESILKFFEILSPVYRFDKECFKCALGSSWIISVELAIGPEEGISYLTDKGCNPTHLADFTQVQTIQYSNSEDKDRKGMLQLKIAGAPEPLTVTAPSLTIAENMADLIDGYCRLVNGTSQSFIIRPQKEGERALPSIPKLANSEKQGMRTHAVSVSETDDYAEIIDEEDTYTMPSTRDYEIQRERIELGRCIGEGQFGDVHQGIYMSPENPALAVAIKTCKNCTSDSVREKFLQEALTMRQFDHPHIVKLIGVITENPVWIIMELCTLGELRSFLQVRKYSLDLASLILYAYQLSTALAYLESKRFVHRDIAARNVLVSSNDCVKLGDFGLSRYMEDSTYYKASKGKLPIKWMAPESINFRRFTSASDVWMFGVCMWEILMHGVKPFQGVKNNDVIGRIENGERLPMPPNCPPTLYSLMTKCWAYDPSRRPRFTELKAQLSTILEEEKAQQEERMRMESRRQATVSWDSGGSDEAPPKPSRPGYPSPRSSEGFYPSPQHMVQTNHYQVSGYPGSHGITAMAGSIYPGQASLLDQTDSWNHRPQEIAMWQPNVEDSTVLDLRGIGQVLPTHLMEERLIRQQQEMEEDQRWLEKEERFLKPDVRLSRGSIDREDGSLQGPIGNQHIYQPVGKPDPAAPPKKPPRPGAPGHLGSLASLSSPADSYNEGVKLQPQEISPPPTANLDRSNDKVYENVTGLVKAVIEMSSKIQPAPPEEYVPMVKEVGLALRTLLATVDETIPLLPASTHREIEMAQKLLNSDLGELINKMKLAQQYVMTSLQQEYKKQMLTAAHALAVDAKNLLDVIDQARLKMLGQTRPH
T30 sequence (P53671 whole entry): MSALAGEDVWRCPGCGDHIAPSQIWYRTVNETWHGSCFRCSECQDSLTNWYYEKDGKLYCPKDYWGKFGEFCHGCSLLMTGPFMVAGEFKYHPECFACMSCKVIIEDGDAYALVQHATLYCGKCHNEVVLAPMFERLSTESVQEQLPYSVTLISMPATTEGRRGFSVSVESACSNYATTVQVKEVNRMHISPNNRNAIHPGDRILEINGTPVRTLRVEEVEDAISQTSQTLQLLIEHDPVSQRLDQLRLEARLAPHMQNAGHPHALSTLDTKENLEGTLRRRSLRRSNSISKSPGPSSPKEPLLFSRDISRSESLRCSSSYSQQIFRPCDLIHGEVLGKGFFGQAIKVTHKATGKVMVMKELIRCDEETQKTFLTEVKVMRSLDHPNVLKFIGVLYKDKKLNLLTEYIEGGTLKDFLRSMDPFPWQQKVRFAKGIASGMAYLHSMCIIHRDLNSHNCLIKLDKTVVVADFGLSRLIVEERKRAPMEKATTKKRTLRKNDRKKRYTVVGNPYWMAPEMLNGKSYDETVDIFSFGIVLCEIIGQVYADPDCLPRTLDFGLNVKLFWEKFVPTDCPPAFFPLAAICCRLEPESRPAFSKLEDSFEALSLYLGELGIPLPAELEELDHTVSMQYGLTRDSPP
T4 sequence (P04629 33-796): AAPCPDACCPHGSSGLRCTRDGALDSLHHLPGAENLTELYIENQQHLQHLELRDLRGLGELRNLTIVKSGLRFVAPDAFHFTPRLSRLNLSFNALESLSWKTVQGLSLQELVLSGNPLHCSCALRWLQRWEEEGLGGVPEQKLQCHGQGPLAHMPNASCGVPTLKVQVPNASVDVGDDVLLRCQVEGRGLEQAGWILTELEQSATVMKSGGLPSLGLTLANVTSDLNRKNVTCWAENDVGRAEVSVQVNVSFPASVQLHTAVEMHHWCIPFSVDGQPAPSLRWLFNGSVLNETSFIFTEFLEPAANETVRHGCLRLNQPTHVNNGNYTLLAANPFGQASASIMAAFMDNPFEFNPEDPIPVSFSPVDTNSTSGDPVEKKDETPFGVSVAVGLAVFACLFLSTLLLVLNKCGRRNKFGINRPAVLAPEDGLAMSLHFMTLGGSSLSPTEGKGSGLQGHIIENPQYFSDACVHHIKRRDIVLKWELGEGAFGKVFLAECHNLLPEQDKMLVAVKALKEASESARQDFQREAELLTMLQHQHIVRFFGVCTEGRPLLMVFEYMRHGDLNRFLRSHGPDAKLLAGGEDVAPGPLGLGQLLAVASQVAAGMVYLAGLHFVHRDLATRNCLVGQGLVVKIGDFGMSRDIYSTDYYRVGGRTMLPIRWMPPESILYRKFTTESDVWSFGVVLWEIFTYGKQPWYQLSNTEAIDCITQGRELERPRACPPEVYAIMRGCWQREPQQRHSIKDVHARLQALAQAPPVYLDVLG
T12 sequence (Q8TDR2 whole entry): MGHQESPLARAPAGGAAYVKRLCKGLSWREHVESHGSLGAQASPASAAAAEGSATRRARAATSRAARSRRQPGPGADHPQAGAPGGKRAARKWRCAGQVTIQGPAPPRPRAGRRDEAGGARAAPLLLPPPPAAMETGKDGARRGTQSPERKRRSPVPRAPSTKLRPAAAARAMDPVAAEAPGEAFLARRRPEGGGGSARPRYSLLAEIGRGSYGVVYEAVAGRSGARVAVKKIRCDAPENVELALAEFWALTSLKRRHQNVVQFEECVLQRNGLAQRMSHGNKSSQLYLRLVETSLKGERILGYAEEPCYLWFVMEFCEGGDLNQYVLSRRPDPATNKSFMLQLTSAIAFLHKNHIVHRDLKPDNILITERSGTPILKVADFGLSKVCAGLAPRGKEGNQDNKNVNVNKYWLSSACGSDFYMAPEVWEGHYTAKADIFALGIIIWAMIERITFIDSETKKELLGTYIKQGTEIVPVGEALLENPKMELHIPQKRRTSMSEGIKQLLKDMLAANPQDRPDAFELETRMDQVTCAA
T27 sequence (P51956 whole entry): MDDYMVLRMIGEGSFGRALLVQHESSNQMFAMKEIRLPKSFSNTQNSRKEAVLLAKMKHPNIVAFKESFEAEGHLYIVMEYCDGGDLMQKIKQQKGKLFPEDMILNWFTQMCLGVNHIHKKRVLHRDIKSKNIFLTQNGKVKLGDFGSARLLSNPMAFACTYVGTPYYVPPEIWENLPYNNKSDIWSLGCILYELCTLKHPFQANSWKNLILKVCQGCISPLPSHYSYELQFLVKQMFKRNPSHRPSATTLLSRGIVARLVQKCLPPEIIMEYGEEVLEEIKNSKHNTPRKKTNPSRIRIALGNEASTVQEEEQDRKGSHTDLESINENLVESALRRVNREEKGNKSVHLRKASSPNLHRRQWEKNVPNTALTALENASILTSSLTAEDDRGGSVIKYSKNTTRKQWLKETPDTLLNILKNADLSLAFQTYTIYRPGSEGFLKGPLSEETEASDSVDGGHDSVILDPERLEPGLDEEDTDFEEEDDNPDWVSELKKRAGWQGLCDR
T9 sequence (O60285 whole entry): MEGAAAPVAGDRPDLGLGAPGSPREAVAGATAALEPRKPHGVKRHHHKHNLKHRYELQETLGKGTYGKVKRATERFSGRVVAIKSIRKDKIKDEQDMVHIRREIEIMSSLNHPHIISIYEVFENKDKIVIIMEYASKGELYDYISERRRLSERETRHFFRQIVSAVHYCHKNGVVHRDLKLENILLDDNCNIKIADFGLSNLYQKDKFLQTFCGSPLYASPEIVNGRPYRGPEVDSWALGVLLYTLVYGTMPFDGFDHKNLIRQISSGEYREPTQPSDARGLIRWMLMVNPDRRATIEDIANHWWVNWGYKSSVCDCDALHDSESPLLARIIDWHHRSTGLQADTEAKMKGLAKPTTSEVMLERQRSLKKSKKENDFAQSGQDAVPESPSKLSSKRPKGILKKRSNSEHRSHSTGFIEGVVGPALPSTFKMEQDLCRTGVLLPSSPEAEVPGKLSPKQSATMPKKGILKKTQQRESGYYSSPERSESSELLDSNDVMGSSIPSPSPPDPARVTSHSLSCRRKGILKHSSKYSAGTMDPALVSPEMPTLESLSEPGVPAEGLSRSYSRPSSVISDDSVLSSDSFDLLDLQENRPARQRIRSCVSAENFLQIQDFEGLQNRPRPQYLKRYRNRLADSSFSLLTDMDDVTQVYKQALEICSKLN
T10 sequence (Q32MK0 whole entry): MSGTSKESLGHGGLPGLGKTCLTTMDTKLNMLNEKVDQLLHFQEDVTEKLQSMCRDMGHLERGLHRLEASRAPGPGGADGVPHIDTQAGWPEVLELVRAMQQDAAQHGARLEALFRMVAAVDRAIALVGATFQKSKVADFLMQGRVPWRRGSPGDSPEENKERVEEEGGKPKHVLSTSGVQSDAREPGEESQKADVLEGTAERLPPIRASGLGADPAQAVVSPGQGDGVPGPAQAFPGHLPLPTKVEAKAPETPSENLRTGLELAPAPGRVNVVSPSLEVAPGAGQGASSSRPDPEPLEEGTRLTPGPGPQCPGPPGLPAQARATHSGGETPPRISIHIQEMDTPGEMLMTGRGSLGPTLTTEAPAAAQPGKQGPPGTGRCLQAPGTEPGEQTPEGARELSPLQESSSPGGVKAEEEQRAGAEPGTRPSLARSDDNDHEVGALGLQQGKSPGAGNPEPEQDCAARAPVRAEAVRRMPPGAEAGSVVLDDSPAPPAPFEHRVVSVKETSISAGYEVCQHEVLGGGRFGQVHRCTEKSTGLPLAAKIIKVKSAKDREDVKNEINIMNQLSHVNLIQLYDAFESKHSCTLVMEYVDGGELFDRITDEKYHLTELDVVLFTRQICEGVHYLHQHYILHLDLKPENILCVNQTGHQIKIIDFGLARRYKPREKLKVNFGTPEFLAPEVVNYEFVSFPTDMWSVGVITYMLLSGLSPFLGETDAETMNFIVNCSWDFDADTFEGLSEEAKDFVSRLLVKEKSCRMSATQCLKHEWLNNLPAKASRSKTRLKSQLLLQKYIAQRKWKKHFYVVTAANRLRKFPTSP

remaining activity at 1 µM (MAP4K5): 96.3% | remaining activity at 1 µM (PRKACB): 99.6% | remaining activity at 1 µM (TRKA): 28.6% | remaining activity at 1 µM (STK36): 108% | remaining activity at 1 µM (JAK3): 111% | remaining activity at 1 µM (PTK2): 118% | remaining activity at 1 µM (RET): 3.8% | Tracer bound (NUAK1): 120.0% | remaining activity at 1 µM (MYLK3): 119% | remaining activity at 1 µM (SRMS): 94.4% | remaining activity at 1 µM (STK35): 59.6% | remaining activity at 1 µM (FGFR2): 40.7% | remaining activity at 1 µM (PLK4): 107% | remaining activity at 1 µM (CDK4-CCND3): 29.7% | remaining activity at 1 µM (STK33): 94.8% | remaining activity at 1 µM (CSNK2A2): 110% | remaining activity at 1 µM (RPS6KA2): 116% | Tracer bound (MAP4K3): 102.6% | remaining activity at 1 µM (CDK20-CCNH): 93.3% | remaining activity at 1 µM (CAMK2A): 102% | remaining activity at 1 µM (HUNK): 88.2% | remaining activity at 1 µM (TBK1): 107% | remaining activity at 1 µM (TNNI3K): 15.1% | Tracer bound (CDK2-CCNE1): 96.0% | Tracer bound (MAPK9): 94.9% | remaining activity at 1 µM (NEK3): 120% | remaining activity at 1 µM (MAPK6): 113% | Tracer bound (SIK1): 110.5% | remaining activity at 1 µM (LIMK2): 88.5%
Compound: CNC(=O)c1cc(Oc2ccc(NC(=O)Nc3cc(C(C)(C)C)on3)cc2)ccn1 [MA68, reference compound]
remaining activity at 1 µM (NEK9): 109%
